The values that follow are results of earlier work, collected in PMC2711878 (ACS chemical biology, 2009).

Data set [1] concerns the target monofunctional P. falciparum WT DHFR.
Data set [2] concerns the target P. falciparum double mutant C59R/S108N DHFR.
The target in data set [3] is P. falciparum N51I/C59R/S108N/I164L DHFR.
The conditions of data set [4]: in vivo.

A word on the Ki: it is a dissociation constant, usually derived from enzyme kinetics or from competition with a known ligand. In the case of `CCc1nc(N)nc(N)c1-c1ccc(Cl)cc1` [pyrimethamine], the inhibitory constant (Ki) in data set [1] (read-out: Ki, WT DHFR, monofunctional enzyme) is 1.5 nM. In addition, the “Ki, fold less inhibitory than WT, double mutant” value in data set [2] (C59R/S108N, monofunctional enzyme) is 50 fold. The “Ki, fold less inhibitory than WT, quadruple mutant” value in data set [3] (N51I/C59R/S108N/I164L, monofunctional enzyme) is given as more than 500 fold.
For `CC1(C)N=C(N)N=C(N)N1OCCCOc1cc(Cl)c(Cl)cc1Cl` [WR99210], the “Ki value, WT DHFR” value in data set [1] was “sub-nanomolar”. For the same molecule, the “Ki value, double mutant DHFR” value in data set [2] was “sub-nanomolar”. Also, the oral bioavailability result in data set [4] is “poor”. Further, the “Ki value, quadruple mutant DHFR” value in data set [3] is recorded as “sub-nanomolar”.
